Results taken from patent publication US10981932B2, “Macrocyclic indole derivatives” (Bayer Aktiengesellschaft, priority 2016, dated 2021).
Read-outs that look alike come from different tables or passages of the source.

What was measured:
SUDHL5 [1] = experiment: Induction of cytotoxicity (CellTiter-Glo, 5 h), SUDHL5
A2780 = experiment: Anti-proliferative effect (CellTiter-Glo, 72 h), A2780; type: cell-based; conditions: A2780 cells, median, read-out: IC50 antiproliferation assay A2780 [M] (median)
How it was run: (§1)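 Anti-proliferative activity is derived from ATP-based luminescence (CellTiter-Glo) in cells exposed to compound for 72 h at 37 °C, set against a time zero plate read at seeding.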

SUDHL10 [2] = experiment: Anti-proliferative effect (CellTiter-Glo, 72 h), SUDHL10; type: cell-based; conditions: SUDHL10 cells, antiproliferation, 72 h incubation, median, read-out: Antiproli SUDHL10 [M] (median)
How it was run: as §1

SUDHL5 [3] = experiment: Induction of caspase-3/7 activity (Caspase-Glo 3/7), SUDHL5; type: cell-based; conditions: caspase-3/7 induction, SUDHL5 cells, 3 h treatment, median
How it was run: (§2)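 Caspase-Glo 3/7 luminescence measured after 3 h compound exposure at 37 °C in SUDHL10 and SUDHL5 cells. EC50 values come from background-corrected signals, with curve bottom set to 1 and plateau set to maximal induction by the reference compound.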

SUDHL10 [4] = experiment: Induction of cytotoxicity (CellTiter-Glo, 5 h), SUDHL10
SUDHL10 [5] = experiment: Induction of caspase-3/7 activity (Caspase-Glo 3/7), SUDHL10; type: cell-based; conditions: caspase-3/7 induction, SUDHL10 cells, 3 h treatment, median
How it was run: as §2

OPM2 = experiment: Anti-proliferative effect (CellTiter-Glo, 72 h), OPM2; type: cell-based; conditions: OPM2 cells, median, read-out: IC50 antiproliferation assay OPM2 [M] (median)
Experimental: Assessment of the Anti-Proliferative Effect of Compounds in Different Cell Lines
The impact of compounds on the proliferation of different cell lines was assessed using the CellTiter-Glo® Luminescent Cell Viability reagent from Promega (G7573). Of note, SUDHL10 and SUDHL5 (DLBCL), NCI-H929 (Multiple Myeloma), A2780 (ovarian carcinoma) as well as MV-4-11(AML) cells are sensitive to MCL-1 inhibition.
In parallel, cells were plated in a reference (day 0) plate for time zero determination.
Rim wells were excluded. The cells were incubated for 72 h hours in a humidified incubator at 37° C. The day 0 plate was measured by adding 30 μl/well of CTG solution (CellTiter-Glo® Luminescent Cell Viability reagent, Promega G7573) to time zero wells in the reference plate followed by a 10 minutes incubation and luminescence reading at 0.1 ms, using the PHERAstar FS microplate reader (BMG Labtech).
After 72 h incubation, the treated plates were measured in the same way as the day 0 plate mentioned above.

MCL-1 = MCL-1 (Homo sapiens, UniProt Q07820); experiment: Protein-protein interaction assay MCL-1/Noxa BH3 peptide (MCL-1 assay), TR-FRET; type: binding; conditions: MBP-MCL-1 / Noxa BH3-derived peptide, median
MCL-1, sequence (Q07820 whole entry): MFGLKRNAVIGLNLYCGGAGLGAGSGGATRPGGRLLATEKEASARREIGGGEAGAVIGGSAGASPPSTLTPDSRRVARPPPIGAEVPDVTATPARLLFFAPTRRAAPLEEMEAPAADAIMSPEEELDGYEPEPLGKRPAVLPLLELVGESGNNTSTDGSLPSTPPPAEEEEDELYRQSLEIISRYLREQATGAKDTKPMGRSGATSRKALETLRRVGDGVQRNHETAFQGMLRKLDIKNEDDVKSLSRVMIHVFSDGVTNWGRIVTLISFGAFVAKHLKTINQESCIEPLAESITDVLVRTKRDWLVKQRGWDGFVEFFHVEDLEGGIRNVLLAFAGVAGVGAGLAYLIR
How it was run: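 MBP-MCL-1 (1 nM final) was preincubated 10 min at 22 °C with compounds (11 concentrations, 0.1 nM–20 μM, duplicates) in Tris pH 7 buffer with NaCl, KF, Tween-20, DTT and BGG. After 1 h at 22 °C in the dark plus overnight at 4 °C, anti-MBP Eu-cryptate/streptavidin-XL665 TR-FRET was read; IC50 came from a 4-parameter fit.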

[6] = Homo sapiens, SU-DHL-5, 5 h, read-out: Cytotox SUDHL5 [M] (median), SUDHL5 cells, cytotoxicity induction, CellTiter-Glo, 5 h incubation, median
[7] = Homo sapiens, SU-DHL10, 5 h, read-out: Cytotox SUDHL10 [M] (median), SUDHL10 cells, cytotoxicity induction, CellTiter-Glo, 5 h incubation, median

Row | SMILES | IC50 (SUDHL5 [1]; [6]) | IC50 (A2780; Homo sapiens, A2780, 72 h) | IC50 (SUDHL10 [2]; Homo sapiens, SU-DHL10, 72 h) | EC50 (SUDHL5 [3]; Homo sapiens, SU-DHL-5, 3 h) | IC50 (SUDHL10 [4]; [7]) | EC50 (SUDHL10 [5]; Homo sapiens, SU-DHL10, 3 h) | IC50 (OPM2; Homo sapiens, OPM-2, 72 h) | IC50 (MCL-1) | IC50 (SUDHL5 [1]; read-out: Cytotox SUDHL5 [M] (median), SUDHL5 cells, cytotoxicity induction, CellTiter-Glo, 5 h incubation, median) | IC50 (A2780) | IC50 (SUDHL10 [2]) | EC50 (SUDHL5 [3]) | IC50 (SUDHL10 [4]; read-out: Cytotox SUDHL10 [M] (median), SUDHL10 cells, cytotoxicity induction, CellTiter-Glo, 5 h incubation, median) | EC50 (SUDHL10 [5]) | IC50 (OPM2)
1 | CN1CCCCn2c(C(=O)O)c(CCCOc3cccc4ccccc34)c3cccc(c32)-c2cnn(C)c2C1 (racemic) [Example 127, (rac)-1,14-dimethyl-7-[3-(naphthalen-1-yloxy)propyl]-10,11,12,13,14,15-hexahydro-1H-pyrazolo[3′,4′:8,9][1,6]diazacycloundecino[10,11,1-hi]indole-8-carboxylic Acid] | > 3.3e-05 M | 2.44e-05 M | 9.32e-06 M | > 33 µM | > 3.3e-05 M | > 33 µM | > 3.3e-05 M | 14.4 nM | – | – | – | – | – | – | –
2 | Cn1nc2c(c1CN1CCOCC1)-c1cccc3c(CCCOc4cccc5ccccc45)c(C(=O)O)n(c13)C/C=C\COC2 (racemic) [Example 066, (rac)-(11Z)-2-Methyl-3-(morpholin-4-ylmethyl)-7-[3-(naphthalen-1-yloxy)propyl]-2,10,13,15-tetrahydropyrazolo[4′,3′:9,10][1,6]oxazacycloundecino[8,7,6-hi]indole-8-carboxylic Acid] | > 3.3e-05 M | 2.8e-05 M | 6.96e-06 M | > 33 µM | > 3.3e-05 M | 29 µM | > 3.3e-05 M | 28.5 nM | – | – | – | – | – | – | –
3 | Cc1ccc2cc1-c1cccc3c(CCCOc4cccc5ccccc45)c(C(=O)O)n(c13)CCOCCO2 (racemic) [Example 117, (rac)-13-Methyl-1-[3-(naphthalen-1-yloxy)propyl]-4,5,7,8-tetrahydro-10,14-(metheno)[1,4,7]dioxazacyclotetradecino[9,8,7-hi]indole-2-carboxylic Acid] | > 3.3e-05 M | > 3.3e-05 M | > 3.3e-05 M | > 33 µM | > 3.3e-05 M | > 33 µM | > 3.3e-05 M | 633 nM | – | – | – | – | – | – | –
4 | CC(C)c1c2c(nn1C)CN(C)CCCn1c(C(=O)O)c(CCCOc3cccc4ccccc34)c3cccc-2c31 (single isomer, unassigned; enantiomer 2) [Example 115, 7,10-dimethyl-1-[3-(naphthalen-1-yloxy)propyl]-1-(propan-2-yl)-4,5,6,7,8,10-hexahydropyrazolo[3′,4′:7,8][1,5]diazecino[9,10,1-hi]indole-2-carboxylic Acid (Enantiomer 2)] | – | – | – | – | – | – | – | 82.9 nM | 1.13e-05 M | 1.19e-05 M | 4.86e-06 M | > 33 µM | 1.49e-05 M | 30.5 µM | 1.9e-05 M
5 | COCCn1nc2c(c1CN1CCOCC1)-c1cccc3c(CCCOc4cccc5ccccc45)c(C(=O)O)n(c13)CCCN(C)C2 (racemic) [Example 056, (rac)-10-(2-methoxyethyl)-7-methyl-11-(morpholin-4-ylmethyl)-1-[3-(naphthalen-1-yloxy)propyl]-4,5,6,7,8,10-hexahydropyrazolo[3′,4′:7,8][1,5]diazecino[9,10,1-hi]indole-2-carboxylic Acid] | > 3.3e-05 M | > 3.3e-05 M | 2e-05 M | > 33 µM | > 3.3e-05 M | > 33 µM | > 3.3e-05 M | 49 nM | – | – | – | – | – | – | –
6 | Cn1nc(CN2CCOCC2)c2c1COCCCn1c(C(=O)O)c(CCCOc3cccc4ccccc34)c3cccc-2c31 (racemic) [Example 138, (rac)-9-methyl-11-(morpholin-4-ylmethyl)-1-[3-(naphthalen-1-yloxy)propyl]-5,6,8,9-tetrahydro-4H-pyrazolo[4′,3′:8,9][1,5]oxazecino[7,6,5-hi]indole-2-carboxylic Acid] | 1.13e-05 M | > 3.3e-05 M | 1.16e-05 M | 11.1 µM | > 3.3e-05 M | > 33 µM | > 3.3e-05 M | 13.5 nM | – | – | – | – | – | – | –
7 | CN(C)S(=O)(=O)N1CCN(c2ccc(OCc3nn(C)c4c3-c3cccc5c(CCCOc6cccc7ccccc67)c(C(=O)O)n(c35)CCCN(Cc3ccccc3)C4)cc2)CC1 (racemic) [Example 004, (rac)-(7-benzyl-11-({4-[4dimethylsulfamoyl)piperazin-1-yl]phenoxy}methyl)-9-methyl-1-[3-(1-naphthyloxy)propyl]4,5,6,7,8,9-hexahydropyrazolo[3′,4′:7,8][1,5]diazecino[9,10,1-hi]indole-2-carboxylic Acid] | 1.47e-05 M | 7.13e-06 M | 2.04e-06 M | 12.5 µM | 2.57e-05 M | 25.8 µM | 1.09e-05 M | 117 nM | – | – | – | – | – | – | –
8 | Cc1ccc2cccc(OCCCc3c(C(=O)O)n4c5c(cccc35)-c3c(C)nn(C)c3COCCCC4)c2c1 (racemic) [Example 012, (rac)-1,3-dimethyl-7-{3-[(7-methyl-1-naphthyl)oxy]propyl}-1,10,11,12,13,15-hexahydropyrazolo[4′,3′:9,10][1,6]oxazacycloundecino[8,7,6-hi]indole-8-carboxylic Acid] | 3.14e-05 M | 3.13e-05 M | 7.15e-06 M | > 33 µM | > 3.3e-05 M | > 33 µM | 2.17e-05 M | 27.4 nM | – | – | – | – | – | – | –
9 | CC(C)OCc1nn(C)c2c1-c1cccc3c(CCCOc4cccc5ccccc45)c(C(=O)O)n(c13)CCCN(C)C2 (racemic) [Example 1-70, (rac)-7,9-dimethyl-1-[3-(naphthalen-1-yloxy)propyl]-11-[(propan-2-yloxy)methyl]-4,5,6,7,8,9-hexahydropyrazolo[3′,4′:78][1,5]diazecino[9,10,1-hi]indole-2-carboxylic Acid] | > 3.3e-05 M | 1.82e-05 M | 1.31e-05 M | > 33 µM | 2.78e-05 M | > 33 µM | 1.22e-05 M | 20 nM | – | – | – | – | – | – | –
10 | COc1cc2cc(c1)-c1cccc3c(CCCOc4cccc5c4CCCC5)c(C(=O)O)n(c13)CCCCCO2 (racemic) [Example 116, (rac)-12-Methoxy-1-[3-(5,6,7,8-tetrahydronaphthalen-1-yloxy)propyl]-5,6,7,8-tetrahydro-4H-10,14-(metheno)[1,7]oxazacyclotetradecino[9,8,7-hi]indole-2-carboxylic Acid] | > 3.3e-05 M | 2.21e-05 M | > 3.3e-05 M | > 33 µM | > 3.3e-05 M | > 33 µM | 1.79e-05 M | 8280 nM | – | – | – | – | – | – | –
11 | Cc1nn(C)c2c1-c1cccc3c(CCCOc4cccc5c4CCCC5)c(C(=O)O)n(c13)CCCOC2 (racemic) [Example 005, (rac)-9,11-dimethyl-1-[3-(5,6,7,8-tetrahydronaphthalen-1-yloxy)propyl]-5,6,8,9-tetrahydro-4H-pyrazolo[4′,3′:8,9][1,5]oxazecino[7,6,5-hi]indole-2-carboxylic Acid] | > 3.3e-05 M | > 3.3e-05 M | > 3.3e-05 M | > 33 µM | > 3.3e-05 M | > 33 µM | > 3.3e-05 M | 66 nM | – | – | – | – | – | – | –
12 | CN1CCCn2c(C(=O)O)c(CCCOc3cccc4ccccc34)c3cccc(c32)-c2c(CNCC(F)(F)F)nn(C)c2C1 (racemic) [Example 129, (rac)-7,9-dimethyl-1-[3-(naphthalen-1-yloxy)propyl]-11-{[(2,2,2-trifluoroethyl)amino]methyl}-4,5,6,7,8,9-hexahydropyrazolo[3′,4′:7,8][1,5]diazecino[9,10,1-hi]indole-2-carboxylic Acid (Racemate)] | > 3.3e-05 M | 1.7e-05 M | 6.99e-06 M | > 33 µM | > 3.3e-05 M | > 33 µM | > 3.3e-05 M | 22.2 nM | – | – | – | – | – | – | –
